In brackets after ≈: the same amount, converted by molar mass. Entries after “also recorded” stand apart in the source; their conditions may differ. Where two headings read alike, the source gives them in different places. Square brackets hold non-standard residues; d marks the D form. Peptide text beside a SMILES is read from it. * marks the point of attachment. Lauroyl = CCCCCCCCCCCC(=O)*; Octanoyl = CCCCCCCC(=O)*; Aun = NCCCCCCCCCCC(=O)O
Assays:
[1] = Hydrophobicity by RP-HPLC retention time; format: physicochemical; settings: for Retention time tR: used as measure of hydrophobicity, RP-HPLC, Phenomenex Luna C18 (100 Å, 5µ), linear gradient 5%B to 95%B over 30 min, A 0.1% TFA in 9:1 water:acetonitrile, B 0.1% TFA in 9:1 acetonitrile:water, 1 mL/min, peptide 0.5 mg/mL in MeOH, UV 215 and 280 nm; for Hydrophobicity ΔtR: ΔtR = tR(x)−tR(a), relative to compound a, RP-HPLC C18, 5%–95%B over 30 min
Experimental: Peptide hydrophobicity was calculated as difference in retention times between peptide analogues b–h and peptide a. Each peptide was dissolved in MeOH to a concentration of 0.5 mg/mL and then subjected to RP-HPLC on an analytical Phenomenex Luna C18 (100 Å, 5µ) column using 0.1% TFA in 9:1 water:acetonitrile as solvent A, and 0.1% TFA in 9:1 acetonitrile:water as solvent B. The peptides were eluted using a linear gradient as follows: 5%B to 95%B over 30 min. The flow rate was 1 mL/min and the absorbance was measured at 215 nm and 280 nm. The retention time was recorded for each peptide.

E.coli ATCC 25922 = format: cell-based, Escherichia coli; settings: ATCC 25922, 18 h
Experimental: (§1) The bacterial strains used were Escherichia coli ATCC 25922, Staphylococcus aureus ATCC 25923, Klebsiella pneumoniae ATCC 700603, Acinetobacter baumannii ATCC 19606, Pseudomonas aeruginosa ATCC 27853 and Staphylococcus epidermidis ATCC 12228. The reference bacterial strains used were purchased from American Type Culture Collection (ATCC) (Manassas, Virginia, USA). They were grown overnight (o/n) at 37 °C in complete Müller-Hinton broth (MHB, Difco) medium with shaking (130 rpm). The day after, the overnight bacterial cultures were diluted in fresh MHB (300 μL o/n culture in 10 mL) and incubated at 37 °C with shaking (130 rpm) for approximately 2 h (mid-log phase) until reaching an optical density (OD) at 600 nm (OD600) ≈ 0.3.
(§2) Peptides diluted in MHB to a concentration of 128 μM were added to the first column of wells of a 96-well round-bottom microtiter plate (Sarstedt, Milan, Italy) and serially diluted (1:2) in a final volume of 50 μL MHB was added to the next wells. Then, a mid-log bacterial cultures (OD 600≈ 0.3) were diluted to 5 × 10^5 colony-forming units (CFU)/mL in MHB and 50 μL of this bacterial suspension was added to each well. In this way, the final bacterial concentration was reduced to 2.5 × 10^5 CFU/mL and the peptide concentration in the wells was also halved in a final volume of 100 μL (final bacteria load was 2.5 × 10^4 CFU/well). The same amount of untreated bacteria in MHB was used as a control for bacterial growth. […] MIC was determined by visual inspection at the end of incubation as the first clear well. Data are reported as moda of independent experiments repeated three times or four times in case of uncertain values.

S.aureus ATCC 25923 = format: cell-based, Staphylococcus aureus
Experimental: as §1, §2

A.baumanni ATCC 19606 = format: cell-based, Acinetobacter baumannii; settings: ATCC 19606, 18 h
Experimental: as §1, §2

K.pneumoniae ATCC 700603 = format: cell-based, Klebsiella pneumoniae; settings: ATCC 700603, 18 h
Experimental: as §1, §2

P.aeruginosa ATCC 27853 = format: cell-based, Pseudomonas aeruginosa; settings: ATCC 27853, 18 h
Experimental: as §1, §2

S.epidermidis ATCC 12228 = format: cell-based, Staphylococcus epidermidis; settings: ATCC 12228, 18 h
Experimental: as §1, §2

[2] = system: ram red blood cells (RBCs); settings: 4% v/v ram RBCs in PBS, 1 h, 37 °C, absorbance 540 nm, 100% = 1% Triton X-100; all concentrations tested; n = 3
Experimental: The lytic potential towards eukaryotic cell membranes was assessed by measuring the release of haemoglobin from commercial ram red blood cells (RBCs) (Microbiol s.r.l., Cagliari, Italy) after exposure to the peptides. First, erythrocytes were isolated by centrifugation, washed with PBS and then suspended at 8% (v/v) in PBS. Secondly, 100 µL erythrocytes suspension was added into each well of a 96-well microplate. Then, 100 µL peptide solution was added to each well at different concentrations (the final concentration of erythrocytes suspension was 4% v/v), and the plates were incubated for 1 h at 37 °C and centrifuged at 1000 g for 10 min. Finally, 100 µL aliquots of supernatant were transferred to fresh 96-well microplate, and the release of haemoglobin was monitored by measuring the absorbance at 540 nm with Tecan microplate reader (Tecan Trading AG, Switzerland). 0% and 100% haemolysis were determined in PBS and 1% Triton X-100, respectively.

HaCaT cell line = settings: 24 h
Experimental: Cytotoxicity was measured by the MTT assay on human immortalized epidermal keratinocyte HaCaT cell line (DKFZ, Eppelheim, Germany). The HaCaT cells were grown in high-glucose Dulbecco’s modified Eagle’s medium (DMEM) (Sigma-Aldrich, Milan, Italy). DMEM medium was supplemented with 10% foetal bovine serum (FBS; Sigma, Milan, Italy), 2 mM glutamine (Sigma, Milan, Italy), 100 U/mL penicillin (Sigma, Milan, Italy) and 100 µg/mL streptomycin (Sigma, Milan, Italy). The cells were maintained at 37 °C in the presence of 5% CO2 and in a humidified incubator.
Cells were counted in a Burker-Türk chamber to prepare a suspension of 2 × 10^5 cells/ml in DMEM High Glucose Complete Medium (Sigma-Aldrich, Milan, Italy). 100 μL of this suspension was added to the wells of a 96-well flat-bottom transparent microtiter plate (Euroclone, Milan, Italy) specially treated for tissue culture. The plate was incubated for 24 h at 37 °C and 5% CO2 to allow the cells in each well to reach a semiconfluent state. The following day, serial dilutions (1:2) of the peptides, starting with 64 μM, were prepared in DMEM medium, and 100 μL of these solutions were used to replace the medium in the plate with HaCaT cells. The same amount of untreated DMEM high-glucose medium was used as a cell growth control. DMEM high-glucose complete medium (100 μL) was used as a negative control to check the sterility of the medium. The plate was sealed with Parafilm to minimize evaporation and incubated at 37 °C and 5% CO2 for 20 h. Then, 25 μL MTT (Sigma-Aldrich, Milan, Italy) dissolved in phosphate-buffered saline (PBS) was added to each well to a final concentration of 1 mg/mL MTT, and the plate was incubated for 4 h in the dark at 37 °C and 5% CO2.
At the end of incubation, 100 μL 10% (w/v) Igepal (Sigma-Aldrich, Milan, Italy) in 10 mM HCl was added to each well, and the plate was incubated overnight in the dark at 37 °C and 5% CO2. The absorbance of MTT at 570 nm was measured using a Nanoquant Infinite-M200Pro plate reader (Tecan, Männedorf, Switzerland). Student’s t-test was performed for all samples.

[3] = 4h and 24 h incubation, different concentrations
chymotrypsin = chymotrypsin (Sigma–Aldrich), 1.25 µg of enzyme in 150 µl buffer; Tris·HCl 50 mM, pH 7.8; settings: 37 °C, up to 24 h
[4] = system: E. coli, A. baumannii, K. pneumoniae, P. aeruginosa, and S. epidermidis strains; format: cell-based; settings: 18 h
Experimental: as §1, §2

Molecule	MIC (E.coli ATCC 25922) [µM]	MIC (A.baumanni ATCC 19606) [µM]	MIC (K.pneumoniae ATCC 700603) [µM]	MIC (P.aeruginosa ATCC 27853) [µM]	MIC (S.epidermidis ATCC 12228) [µM]	cleaved bond (chymotrypsin)	further results
CCCCCCCC(=O)N[C@@H](CCCCN)C(=O)N[C@@H](CCCNC(=N)N)C(=O)N[C@@H](CC(C)C)C(=O)N[C@@H](CCCCN)C(=O)N[C@@H](CCCCN)C(=O)N[C@H](C(=O)NCC(=O)N[C@@H](CCCCN)C(=O)N[C@H](C(=O)N[C@@H](CC(C)C)C(=O)N[C@@H](CCCCN)C(=O)N[C@@H](Cc1c[nH]c2ccccc12)C(=O)N[C@H](C(=O)N[C@@H](C)C(=O)N[C@@H](CCCCN)C(=O)N[C@H](C(=O)N[C@H](C(=O)NCC(=O)N[C@@H](CO)C(=O)N[C@H](C(N)=O)[C@@H](C)CC)C(C)C)[C@@H](C)CC)[C@@H](C)CC)C(C)C)[C@@H](C)CC [c] (Octanoyl-KRLKKIGKVLKWIAKIVGSI-NH2)	16 (≈ 38.5 µg/mL)	8 (≈ 19.2 µg/mL)	16 (≈ 38.5 µg/mL)	32 (≈ 76.9 µg/mL)	8 (≈ 19.2 µg/mL)		Retention time tR [1]: 22.3 min; Hydrophobicity ΔtR [1]: 9.1; MIC (S.aureus ATCC 25923; ATCC 25923, 18 h): 16 µM (≈ 38.5 µg/mL); membranolytic (haemolytic) effect on erythrocytes [2]: significant lytic effect; HC50 (cytotoxicity on HaCaT cells) (HaCaT cell line): < 32 µM; solubility in Müller-Hinton broth [3]: low solubility
Ac-KRLKKIGKVLKWIPPIVGSI-NH2						Leu21-Lys22, first_seen, within a 30-min incubation	
Lau-KRLKKIGKVLKWIAKIVGSI-NH2						Trp23-Ile24, after longer incubation times; also recorded: Leu21-Lys22, first_seen, within a 30-min incubation; also recorded: Leu14-Lys15, after longer incubation times	
Ac-KRLKKIGKVLKWIPPIVGSI-NH2 [a]	2	1	1	4	2		Retention time tR [1]: 13.2 min; Hydrophobicity ΔtR [1]: 0; MIC (S.aureus ATCC 25923; S.aureus ATCC 25923, Mueller–Hinton broth, 18 h, 37 °C, 2.5 × 10^5 CFU/mL, visual, mode of three independent tests): 64 µM; MIC, span over all tested bacterial strains except S. aureus [4]: 1 to 4 µM
Pal-KRLKKIGKVLKWIAKIVGSI-NH2						Leu14-Lys15, after longer incubation times; also recorded: Leu21-Lys22, after longer incubation times; also recorded: Trp23-Ile24, after longer incubation times	
Oct-KRLKKIGKVLKWIAKIVGSI-NH2						Leu21-Lys22, first_seen, within a 30-min incubation; also recorded: Trp23-Ile24, first_seen, within a 30-min incubation; also recorded: Leu14-Lys15, within a 30-min incubation	
Ac-KRLKKIGKVUKWI-NH2						Leu14-Lys15, within a 30-min incubation; also recorded: Trp23-Ile24, after longer incubation times	
CC[C@H](C)[C@H](NC(=O)[C@H](CO)NC(=O)CNC(=O)[C@@H](NC(=O)[C@@H](NC(=O)[C@H](CCCCN)NC(=O)[C@H](C)NC(=O)[C@@H](NC(=O)[C@H](Cc1c[nH]c2ccccc12)NC(=O)[C@H](CCCCN)NC(=O)[C@H](CC(C)C)NC(=O)[C@@H](NC(=O)[C@H](CCCCN)NC(=O)CNC(=O)[C@@H](NC(=O)[C@H](CCCCN)NC(=O)[C@H](CCCCN)NC(=O)[C@H](CC(C)C)NC(=O)[C@H](CCCNC(=N)N)NC(=O)[C@H](CCCCN)NC(C)=O)[C@@H](C)CC)C(C)C)[C@@H](C)CC)[C@@H](C)CC)C(C)C)C(=O)NCCCCCCCCCCC(N)=O [f] (Ac-KRLKKIGKVLKWIAKIVGSI[Aun]-NH2)	8 (≈ 20 µg/mL)	4 (≈ 10 µg/mL)	16 (≈ 40.1 µg/mL)	16 (≈ 40.1 µg/mL)	8 (≈ 20 µg/mL)		MIC (S.aureus ATCC 25923; ATCC 25923, 18 h): 8 µM (≈ 20 µg/mL); membranolytic (haemolytic) effect on erythrocytes [2]: significant lytic effect; HC50 (cytotoxicity on HaCaT cells) (HaCaT cell line): < 32 µM
Ac-KRLKKIGKVLKWIAKIVGSI[Aun]-NH2 (SMILES CC[C@H](C)[C@H](NC(=O)[C@H](CO)NC(=O)CNC(=O)[C@@H](NC(=O)[C@@H](NC(=O)[C@H](CCCCN)NC(=O)[C@H](C)NC(=O)[C@@H](NC(=O)[C@H](Cc1c[nH]c2ccccc12)NC(=O)[C@H](CCCCN)NC(=O)[C@H](CC(C)C)NC(=O)[C@@H](NC(=O)[C@H](CCCCN)NC(=O)CNC(=O)[C@@H](NC(=O)[C@H](CCCCN)NC(=O)[C@H](CCCCN)NC(=O)[C@H](CC(C)C)NC(=O)[C@H](CCCNC(=N)N)NC(=O)[C@H](CCCCN)NC(C)=O)[C@@H](C)CC)C(C)C)[C@@H](C)CC)[C@@H](C)CC)C(C)C)C(=O)NCCCCCCCCCCC(N)=O)						Leu21-Lys22, first_seen, within a 30-min incubation; also recorded: Trp23-Ile24, first_seen, within a 30-min incubation; also recorded: Leu14-Lys15, after longer incubation times	
CCCCCCCCCCCC(=O)N[C@@H](CCCCN)C(=O)N[C@@H](CCCNC(=N)N)C(=O)N[C@@H](CC(C)C)C(=O)N[C@@H](CCCCN)C(=O)N[C@@H](CCCCN)C(=O)N[C@H](C(=O)NCC(=O)N[C@@H](CCCCN)C(=O)N[C@H](C(=O)N[C@@H](CC(C)C)C(=O)N[C@@H](CCCCN)C(=O)N[C@@H](Cc1c[nH]c2ccccc12)C(=O)N[C@H](C(=O)N[C@@H](C)C(=O)N[C@@H](CCCCN)C(=O)N[C@H](C(=O)N[C@H](C(=O)NCC(=O)N[C@@H](CO)C(=O)N[C@H](C(N)=O)[C@@H](C)CC)C(C)C)[C@@H](C)CC)[C@@H](C)CC)C(C)C)[C@@H](C)CC [d] (Lauroyl-KRLKKIGKVLKWIAKIVGSI-NH2)	>32	16 (≈ 39.4 µg/mL)	32 (≈ 78.7 µg/mL)	>32	32 (≈ 78.7 µg/mL)		Retention time tR [1]: 22.8 min; Hydrophobicity ΔtR [1]: 9.6; MIC (S.aureus ATCC 25923; ATCC 25923, 18 h): 32 µM (≈ 78.7 µg/mL); membranolytic (haemolytic) effect on erythrocytes [2]: significant lytic effect; HC50 (cytotoxicity on HaCaT cells) (HaCaT cell line): < 32 µM; solubility in Müller-Hinton broth [3]: low solubility
Ac-KRLKKIGKVLKWI-NH2						Leu21-Lys22, first_seen, within a 30-min incubation	
Ac-KRLKKIGKVLKWIAKIVGSI-NH2						Leu21-Lys22, first_seen, within a 30-min incubation; also recorded: Leu14-Lys15, after longer incubation times; also recorded: Trp23-Ile24, after longer incubation times	

— PMC10499915 (Scientific Reports, 2023)
